# Source: US11077119B2, “Enhanced brain bioavailability of galantamine by selected formulations and transmucosal administration of lipophilic prodrugs” (Neurodyn Life Sciences Inc., priority 2012, dated 2021)
# “And” between values parts separate entries of the source, which are not always exact repeats. Equal values may be shown once. Read-outs that look alike come from different tables or passages of the source.
# Experiments:
# [1] = 3 mg/kg
# Description: The pharmacokinetics and brain-to-blood concentration ratios (BBRC) of several galantamine derivatives and their cleavage product galantamine were evaluated after intranasal administration in Swiss albino mice at a dose of 3 mg/kg. After extraction from brain and blood, the drug concentrations were determined by LC/MS/MS. For comparison, the BBRC for the parent drug galantamine was also determined.
# [2] = Solubility test of Memogain salts in water (HPLC); type: physicochemical; settings: after warming to >50° C.; precipitation seeding avoided
# Description: 10 mg of the corresponding salt and 100 microliters of water were sonicated for 5 min at r.t. The resulting solution or suspension was centrifuged for 3 min. and filtered using a filter tip. 10 microliters of the filtrate was transferred in a volumetric flask and diluted to 10.0 ml with water to obtain the sample solution. 20 microliters of this sample solution was injected for HPLC and the amount of Memogain quantified using a Merck Chromolith RP18 column and a gradient of 5% to 60% acetonitrile and water, both solvents containing 0.1% formic acid, injection volume: 20 microliters.
# [3] = type: in vivo
# From the text: Intranasal dosing can be done with simple spray-pump methods, although also many other methods can be used.
# [4] = Dog study, single intranasal dose: plasma and brain levels
# Description: The study was performed in dogs. A single dose of 4 mg/kg intranasal Memogain was administered and the plasma levels of Memogain and liberated galantamine were determined as a function of time after administration.
# ferrets = assay: Gastro-intestinal side effects in ferrets; settings: i.p.
# Description: These studies were performed in ferrets that were dosed i.p. with either 20 mg/kg galantamine (maximal tolerated dose), or with 20, 40 and 80 mg/kg Memogain, respectively.
# [5] = mouse, in vivo
# Description: Mice were injected with 3 mg/kg i.v. of either Memogain or galantamine.
# physchem = type: physicochemical
# Description: Free Base in Water: 26 μg/ml (66 μM)
# Maleate in Water: 7.5 mg/ml (15 mM)
# Maleate in 0.9% NaCl: 0.6 mg/ml (1.5 mM)
# Free Base in Cyclodextrin-Vehicle^1): 8.9 mg/ml (23 mM)
# Maleate in Cyclodextrin-Vehicle): 21 mg/ml (41 mM) ^1) 15% (109 mM) Hydroxypropyl-β-cyclodextrin, 96 mM NaCl
# dogs [6] = assay: Safety after intravenous bolus; type: in vivo
# Description: Example 13. Memogain is at Least 10 Times Safer than Galantamine
# This study was performed in dogs, and both drugs were administered as intravenous bolus. The lower toxicity of Memogain is due to the much lower steady-state plasma levels of galantamine resulting from enzymatic cleavage of the pro-drug (FIG. 11).
# rats [7] = settings: rat, in vivo
# [8] = target: acetylcholinesterase (AChE) (Homo sapiens, UniProt P22303); assay: esterase inhibition compared with galantamine; type: biochemical; settings: read-out: esterase inhibition, relative to that induced by the same concentration of galantamine
# acetylcholinesterase (AChE), sequence (P22303 32-614): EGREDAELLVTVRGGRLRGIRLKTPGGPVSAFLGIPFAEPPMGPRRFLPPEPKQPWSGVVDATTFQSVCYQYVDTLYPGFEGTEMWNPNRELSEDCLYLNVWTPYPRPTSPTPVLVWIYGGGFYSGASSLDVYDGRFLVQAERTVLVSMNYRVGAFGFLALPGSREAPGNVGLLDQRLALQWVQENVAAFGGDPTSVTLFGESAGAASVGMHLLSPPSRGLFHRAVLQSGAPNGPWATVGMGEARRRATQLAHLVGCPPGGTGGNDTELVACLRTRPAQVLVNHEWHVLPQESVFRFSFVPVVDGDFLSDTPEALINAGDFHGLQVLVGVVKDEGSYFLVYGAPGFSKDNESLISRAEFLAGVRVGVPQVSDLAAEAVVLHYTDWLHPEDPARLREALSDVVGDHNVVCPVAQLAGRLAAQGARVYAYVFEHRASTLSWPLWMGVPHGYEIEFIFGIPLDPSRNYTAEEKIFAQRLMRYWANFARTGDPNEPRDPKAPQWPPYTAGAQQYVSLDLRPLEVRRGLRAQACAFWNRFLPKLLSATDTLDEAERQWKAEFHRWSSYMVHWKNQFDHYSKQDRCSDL
# Description: Said derivative of galantamine can be obtained by a one-step chemical modification of the parent drug (galantamine). The modification almost completely abolishes the pharmacological activity of galantamine on its two major targets in the human body, nicotinic acetylcholine receptor (nAChR) and acetylcholinesterase (AChE).
# At the physiologically interesting concentration of 1 μM, Memogain has less than 4% of the esterase inhibition induced by the same concentration of galantamine.
# dogs [9] = settings: dog, in vivo
# [10] = design: species or system Wistar rats; settings: rat, in vivo, 3 mg/kg
# Description: The first-pass effect of Gln-1062 was evaluated after intravenous and intraportal dosing of 3 mg/kg in Wistar rats (FIG. 8).
# rats [11] = settings: rat, in vivo; remark: listed apart in the source
# [12] = in vivo
# [13] = tested on: scopolamine-induced amnesia in mice; assay: Reversal of scopolamine-induced amnesia in T-maze; type: in vivo; settings: scopolamine i.p.; intranasal Memogain versus galantamine
# From the text: We therefore used pharmacodynamics studies to determine the effective concentrations of parent drug in suitable experimental conditions, such as the reversal of scopolamine-induced temporary amnesia in the T-maze cognitive paradigm studied in mice. These studies confirmed that several fold higher (up to 20 fold) BBRC of parent drug (and related effectiveness in cognitive enhancement) can be achieved by transmucosal delivery of pro-drug formulations via the nasal or buccal cavity.
# Mice were treated with scopolamine to induce acute amnesia and were then tested for performance in a T-maze, in the absence or presence of […] galantamine or intranasal Memogain (FIG. 7). […] Mice were challenged with Scopolamine i.p. in a T-maze assay to induce disorientation/amnesia (set to 0% performance recovery). Co-application of galantamine (i.p.) or of Memogain® (i.n.) rescues orientation in the T-maze in a dose-dependent manner.
smiles,measurement,setting,value
"COc1ccc2c3c1O[C@H]1C[C@@H](OC(=O)c4ccccc4)C=C[C@@]31CCN(C)C2.O=C(O)C(O)C(O)C(O)C(O)CO [Memogain gluconate, galantamine benzoate gluconate]",BBRC compared with galantamine,"[1]; intranasal, LC/MS/MS",much larger BBRC than galantamine
same,stability of metastable high-concentration aqueous solution,[2],stable for hours and days
same,local sensation on intranasal dosing,[3]; intranasal,no burning sensation to nose
COc1ccc2c3c1O[C@H]1C[C@@H](O)C=C[C@@]31CCN(C)C2 [galantamine],Kp at 120 min,"[4]; in vivo, 4 mg/kg",1 to 1.5
same,half-life,"[4]; in vivo, 4 mg/kg",6 h
same,maximal tolerated dose,ferrets,20 mg/kg
same,BBRC,[5],~1:1
COc1ccc2c3c1O[C@H]1C[C@@H](OC(=O)c4ccccc4)C=C[C@@]31CCN(C)C2.O=C(O)/C=C\C(=O)O [Memogain maleate],Solubility in 0.9% NaCl,physchem; 0.9% NaCl,0.6 mg/ml and 1.5 mM
same,Solubility in Cyclodextrin-Vehicle,"physchem; 15% (109 mM) Hydroxypropyl-β-cyclodextrin, 96 mM NaCl",21 mg/ml and 41 mM
same,Solubility in Water,physchem; water,7.5 mg/ml and 15 mM
"COc1ccc2c3c1O[C@H]1C[C@@H](OC(=O)c4ccccc4)C=C[C@@]31CCN(C)C2 [GLN-1062, (4aS,6R,8aS)-4a,5,9,10,11,12-hexahydro-3-methoxy-11-methyl-6H-Benzofuro[3a,3,2-ef][2]benzazepin-6-ol, 6-benzoate]",solubility,physchem; aqueous with cosolvent or surfactant or cyclodextrin,8900 µg/mL and 23000 µM
same,solubility,physchem; water,26 µg/mL and 66 µM
same,safety compared with galantamine,dogs [6],at Least 10 Times
same,adverse effects compared with galantamine,rats [7],much less adverse effects
same,BBRC compared with galantamine,"[1]; mouse, in vivo",particularly large BBRC
same,inhibition at 1 µM,[8],< 4%
same,adverse effects compared with galantamine,dogs [9],much less adverse effects
same,half-life,[4]; dog,1.5 h
same,Kp at 120 min,"[4]; dog, 4 mg/kg",9
same,"maximal concentration levels in the brain, compared with i.v. administration",[10],similarly high maximal concentration levels
same,lower toxicity as compared to galantamine,"ferrets; from dose dependency of adverse effects (20, 40, 80 mg/kg)",at least 4 times
same,GI side effects,[3]; in vivo,no GI side effects were observed
same,adverse effects compared with galantamine,rats [11],much less adverse effects
same,GI-related side effects,[12],GI-related side effects had practically disappeared
same,reversal of acutely induced amnesia (T-maze performance),[13],more effective than galantamine
